Measurements from patent US20220241333A1, “MODULATION OF T CELL CYTOTOXICITY AND RELATED THERAPY” (Cancer Research Technology Limited, priority 2019, published 2022).

How the values were obtained:
Bcl6 = Bcl6 (Homo sapiens, UniProt P41182); details: compared with BI-3802; cited from earlier work
CD4+ effector T cells = assay: GZMB expression in mouse CD4+ effector T cells treated with Bcl6 degrader (flow cytometry); type: cell-based; details: 10 nM, 72 h, low dose αCD3+αCD28 0.1 ug/ml
Protocol: Spleens and lymph nodes were taken from C57BL/6J mice, and processed through a 70 μm mesh using PBS, followed by red blood cell lysis using Red Blood cell lysis buffer (Sigma) according to the manufacturer's protocol. Lymphocytes were labelled with CellTrace Violet (ThermoFisher) according to manufacturer's protocol and cultured in RPMI media supplemented with 10% fetal bovine serum, 100 U/mL penicillin, 100 ug/ml streptomycin and 2 mM L-glutamine for 72 h. Cells were either left unstimulated or stimulated with αCD3 (clone 2C11, BioXcell) and αCD28 (clone 37.51, BioXcell) at 0.1 ug/ml. Cells were additionally treated with a Bcl6 degrader (BI-3802) or with a control compound (BI-5273), at a final concentration of 10 nM. […] Cells were stained for flow cytometry using a fixable viability dye (eBiosciences) and with directly conjugated antibodies against CD3, CD4, CD8, FoxP3, CD25, GzmB, PD-1 and Bcl6 using the FoxP3 Transcription factor staining Buffer set (ThermoFisher) according to the manufacturer's instructions.

human naive CD4+ T cells = assay: GzmB expression in aCD3/aCD28-stimulated human naive CD4+ T cells; type: cell-based; details: blockade of IL-2R signalling with anti-human CD25
Protocol: FACS-purified human CD4^+ T cells were cultured in RPMI complete medium with irradiated autologous feeders cells in 1:1 ratio for 96 h, stimulated with aCD3 (OKT3) and aCD28 (9.3; BioXcell). To some wells anti-CD25 antibody (Basiliximab; Novartis) was added 48 hours post aCD3/CD28 stimulation.

human CD8+ T cells = assay: GZMB and BCL6 expression in human CD8+ T cells (PBMCs) treated with Bcl6 targeting drugs (flow cytometry); type: cell-based; details: 100 nM, 72 h, low dose αCD3 0.5 ug/ml; compared to control compound BI-5273
Protocol: (§1) Healthy donor human PBMCs were labelled with CellTrace Violet (ThermoFisher) according to manufacturer's protocol and cultured in RPMI media supplemented with 10% fetal bovine serum, 100 U/mL penicillin, 100 ug/ml streptomycin and 2 mM L-glutamine for 72 h. Cells were either left unstimulated or stimulated with αCD3 (clone OKT3) at a final concentration of 0.5 ug/ml. Cells were additionally treated with Bcl6 targeting drugs, or with a control compound (BI-5273), at a final concentration of 100 nM. Cells were stained for flow cytometry using a fixable viability dye (eBiosciences) and with directly conjugated antibodies against human CD3, CD4, CD8, FoxP3, CD25, GzmB, and Bcl6 using the FoxP3 Transcription factor staining Buffer set (ThermoFisher) according to the manufacturer's instructions.

[1] = test system: human CD4+ effector T cells; assay: GZMB expression in human CD4+ effector T cells (PBMCs) treated with Bcl6 targeting drugs (flow cytometry); type: cell-based; details: 100 nM, 72 h, low dose αCD3 0.5 ug/ml
Protocol: as §1

[2] = test system: CD4+ Trp1 and OT-II T cells; assay: GzmB upregulation in CD4+ Trp1 and OT-II TCR Tg T cells stimulated in vitro with antigen and cytokines; type: cell-based, mouse; details: low antigen concentration (0.01 μM OVA peptide), comparison of CGAMMA chain cytokines
Protocol: Purified CD4+ T cells (CD4 T cells beads, Miltenyi or CD4 Dyna Beads, Invitrogen) were cultured in RPMI complete medium (as above) together with DC and irradiated feeder cells (40 Gy) in 2:1:1 ratio for 72 or 96 h. Polyclonal CD4+ T cells were stimulated with anti-CD3 (2C11) and anti-CD28 (37.51) (BioXcell); OT-II cells with OVA peptide (Pepscan) and Trp-1 cells with Trp-1 peptide (Pepscan) at concentration indicated in figure legend. Mouse CD4 T cells were cultured with aCD25 (PC61) and aIL-2 (JES6-1A12, BioXcell).
We therefore evaluated the potential contribution of CGAMMA receptor cytokines to the upregulation of GzmB in tumour-reactive CD4^+ T cells.

[3] = compared to control compound BI-5273
[4] = relative to control compound BI-5273

C[C@@H]1C[C@H](C)CN(c2ncc(Cl)c(Nc3ccc4c(c3)cc(OC(C)(C)C(=O)O)c(=O)n4C)n2)C1 [BI-5273]
Bcl6 inhibitor activity (Bcl6): significantly reduced Bcl6 inhibitor activity

CNC(=O)COc1cc2cc(Nc3nc(N4C[C@H](C)C[C@H](C)C4)ncc3Cl)ccc2n(C)c1=O [BI-3802]
Mean fluorescence intensity of GZMB in CD4+ effector T cells (CD4+ effector T cells; [3]): increased GZMB expression
Percentage of CD4+ effector T cells that express GZMB (CD4+ effector T cells; [4]): significantly greater percentage

Basiliximab
GzmB expression (human naive CD4+ T cells): significantly reduced GzmB expression to levels below those of the untreated control sample

C[C@@H]1CN(c2ncc(Cl)c(Nc3ccc4c(c3)n(CCC(C)(C)O)c(=O)n4C)n2)C[C@H](C)C1(F)F [CCT369260, 5-((5-chloro-2-((3R,5S)-4,4-difluoro-3,5-dimethylpiperidin-1-yl)pyrimidin-4-yl)amino)-3-(3-hydroxy-3-methylbutyl)-1-methyl-1,3-dihydro-2H-benzo[d]imidazol-2-one]
Percentage of human CD8+ T cells that express BCL6 (human CD8+ T cells): significantly lower percentage
Percentage of human CD8+ T cells that express GZMB (human CD8+ T cells): A decrease, although not statistically significant
Mean fluorescence intensity (MFI) of GZMB in human CD4+ effector T cells [1, 3]: increased GZMB expression
Percentage of human CD4+ effector T cells that express GZMB [1, 4]: significantly greater percentage

B1: IL-7: cytokine (Peprotech) added to T cell cultures (protein, UniProt P13232 26-177, looked up)
Interleukin-7: DCDIEGKDGKQYESVLMVSIDQLLDSMKEIGSNCLNNEFNFFKRHICDANKEGMFLFRAARKLRQFLKMNSTGDFDLHLLKVSEGTTILLNCTGQVKGRKPAALGEAQPTKSLEENKSLKEQKKLNDLCFLKRLLQEIKTCWNKILMGTKEH
Induction of GzmB [2]: at a much lower level
